From ChEMBL document CHEMBL4699582, “Discovery of OATD-01, a First-in-Class Chitinase Inhibitor as Potential New Therapeutics for Idiopathic Pulmonary Fibrosis” (J Med Chem, 2020) come the findings set out here.

Data set [1] deals with Acidic mammalian chitinase (Mus musculus, UniProt Q91XA9). Nature of the data set: Inhibition of full-length C-terminal his-tagged mouse AMCase expressed in expressed in CHO-K1 cells assessed as reduction in chitinolytic activity using 4-methylumbelliferyl-beta-D-N,N'-diacetylchitobioside hydrate as substrate after 60 mins by fluorometric assay. It counts as cell-based.
The target in data set [2] is Chitotriosidase-1 (Mus musculus, UniProt Q9D7Q1). Nature of the data set: biochemical.
Description: Inhibition of recombinant full-length C-terminal his-tagged mouse CHIT1 expressed in CHO-K1 cells assessed as reduction in chitinolytic activity using 4-methylumbelliferyl-beta-D-N,N',N"-triacetylchitotrioside as substrate after 60 mins by fluorometric assay
The target in data set [3] is Voltage-gated inwardly rectifying potassium channel KCNH2 (Homo sapiens, UniProt Q12809). Nature of the data set: Inhibition of tracer red binding to human ERG expressed in HEK293 cell membranes measured after 2 to 6 hrs by fluorescence polarization assay. A general note: Fluorescence polarisation rises when a labelled molecule tumbles more slowly, as on binding a larger partner.

The target in data set [4] is Chitotriosidase-1 (Homo sapiens, UniProt Q13231). It counts as cell-based. As to conditions: hek293f; call rule not given here.
In data set [5] the target is Acidic mammalian chitinase (Homo sapiens, UniProt Q9BZP6). Nature of the data set: Inhibition of full-length C-terminal his-tagged human AMCase expressed in CHO-K1 cells assessed as reduction in chitinolytic activity using 4-methylumbelliferyl-beta-D-N,N-diacetylchitobioside hydrate as substrate after 60 mins by fluorometric assay. It counts as cell-based.
Acidic mammalian chitinase (Homo sapiens, UniProt Q9BZP6), sequence (Q9BZP6 whole entry): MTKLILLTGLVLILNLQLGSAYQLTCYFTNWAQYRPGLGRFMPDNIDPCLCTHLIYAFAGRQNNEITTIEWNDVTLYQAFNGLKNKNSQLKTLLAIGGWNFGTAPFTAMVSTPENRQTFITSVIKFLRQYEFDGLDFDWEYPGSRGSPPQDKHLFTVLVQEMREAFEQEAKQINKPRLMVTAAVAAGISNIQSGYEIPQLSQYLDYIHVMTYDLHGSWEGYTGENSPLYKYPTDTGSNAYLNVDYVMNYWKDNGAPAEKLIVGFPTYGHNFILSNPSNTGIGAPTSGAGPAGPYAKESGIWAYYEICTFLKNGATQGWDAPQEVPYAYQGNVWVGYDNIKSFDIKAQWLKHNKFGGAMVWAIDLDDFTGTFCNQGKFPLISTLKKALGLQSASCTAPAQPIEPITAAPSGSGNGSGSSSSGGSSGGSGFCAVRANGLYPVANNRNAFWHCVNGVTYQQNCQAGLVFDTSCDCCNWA

Voltage-gated inwardly rectifying potassium channel KCNH2, sequence (Q12809 whole entry): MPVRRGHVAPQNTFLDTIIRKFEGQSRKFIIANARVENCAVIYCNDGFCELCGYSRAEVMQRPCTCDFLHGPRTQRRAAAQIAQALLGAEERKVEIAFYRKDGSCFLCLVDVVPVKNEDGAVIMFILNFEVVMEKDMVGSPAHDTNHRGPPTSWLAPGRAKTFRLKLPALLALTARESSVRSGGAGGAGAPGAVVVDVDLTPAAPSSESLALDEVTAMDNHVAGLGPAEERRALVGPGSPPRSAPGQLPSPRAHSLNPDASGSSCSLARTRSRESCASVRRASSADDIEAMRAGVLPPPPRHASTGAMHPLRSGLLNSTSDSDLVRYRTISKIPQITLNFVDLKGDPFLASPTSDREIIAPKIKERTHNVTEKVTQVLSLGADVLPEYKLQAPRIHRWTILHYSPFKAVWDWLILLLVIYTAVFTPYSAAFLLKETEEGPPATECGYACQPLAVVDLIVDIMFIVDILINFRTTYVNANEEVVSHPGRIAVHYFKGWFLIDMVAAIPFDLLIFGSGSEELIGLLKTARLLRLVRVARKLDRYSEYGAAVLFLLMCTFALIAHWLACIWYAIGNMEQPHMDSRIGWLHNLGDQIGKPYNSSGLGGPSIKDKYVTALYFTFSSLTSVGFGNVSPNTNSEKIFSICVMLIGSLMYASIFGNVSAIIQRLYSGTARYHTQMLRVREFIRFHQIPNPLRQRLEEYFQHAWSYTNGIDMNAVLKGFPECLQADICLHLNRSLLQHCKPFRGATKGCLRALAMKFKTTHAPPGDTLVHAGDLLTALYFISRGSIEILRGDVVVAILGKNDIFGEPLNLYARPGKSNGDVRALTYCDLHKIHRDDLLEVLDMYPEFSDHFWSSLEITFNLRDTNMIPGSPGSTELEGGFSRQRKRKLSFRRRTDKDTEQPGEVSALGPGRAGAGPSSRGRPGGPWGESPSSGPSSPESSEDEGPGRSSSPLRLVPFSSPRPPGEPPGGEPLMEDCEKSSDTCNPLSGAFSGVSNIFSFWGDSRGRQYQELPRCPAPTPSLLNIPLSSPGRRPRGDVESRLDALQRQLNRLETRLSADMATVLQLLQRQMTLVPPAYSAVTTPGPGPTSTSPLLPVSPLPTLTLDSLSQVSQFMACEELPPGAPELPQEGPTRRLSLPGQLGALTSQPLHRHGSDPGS
Acidic mammalian chitinase (Mus musculus, UniProt Q91XA9), sequence (Q91XA9 whole entry): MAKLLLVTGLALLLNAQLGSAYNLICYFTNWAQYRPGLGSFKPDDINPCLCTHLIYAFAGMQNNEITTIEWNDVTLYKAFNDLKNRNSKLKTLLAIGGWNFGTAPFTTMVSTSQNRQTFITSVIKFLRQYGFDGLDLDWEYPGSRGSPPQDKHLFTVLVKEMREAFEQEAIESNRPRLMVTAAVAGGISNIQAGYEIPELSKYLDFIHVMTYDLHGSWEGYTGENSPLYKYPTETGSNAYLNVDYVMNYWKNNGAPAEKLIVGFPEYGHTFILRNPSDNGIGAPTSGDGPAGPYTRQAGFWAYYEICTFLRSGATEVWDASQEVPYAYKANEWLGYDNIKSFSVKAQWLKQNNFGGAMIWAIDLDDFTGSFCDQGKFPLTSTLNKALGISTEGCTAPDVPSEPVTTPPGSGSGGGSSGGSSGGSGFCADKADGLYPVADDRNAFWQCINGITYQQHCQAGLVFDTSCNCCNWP
Chitotriosidase-1 (Mus musculus, UniProt Q9D7Q1), sequence (Q9D7Q1 whole entry): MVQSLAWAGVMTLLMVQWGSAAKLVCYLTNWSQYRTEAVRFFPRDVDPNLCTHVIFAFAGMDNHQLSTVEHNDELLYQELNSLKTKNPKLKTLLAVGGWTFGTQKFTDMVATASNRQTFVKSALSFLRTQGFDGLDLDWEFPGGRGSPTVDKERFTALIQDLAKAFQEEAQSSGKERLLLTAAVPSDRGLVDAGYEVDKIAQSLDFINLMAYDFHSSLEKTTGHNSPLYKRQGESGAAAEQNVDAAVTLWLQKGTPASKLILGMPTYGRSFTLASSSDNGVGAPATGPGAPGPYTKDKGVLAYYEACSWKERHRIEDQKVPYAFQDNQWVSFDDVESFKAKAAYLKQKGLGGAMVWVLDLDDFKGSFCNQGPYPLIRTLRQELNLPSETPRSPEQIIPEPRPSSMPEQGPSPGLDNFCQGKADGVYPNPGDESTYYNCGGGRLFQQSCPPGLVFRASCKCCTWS
Chitotriosidase-1 (Homo sapiens, UniProt Q13231), sequence (Q13231 whole entry): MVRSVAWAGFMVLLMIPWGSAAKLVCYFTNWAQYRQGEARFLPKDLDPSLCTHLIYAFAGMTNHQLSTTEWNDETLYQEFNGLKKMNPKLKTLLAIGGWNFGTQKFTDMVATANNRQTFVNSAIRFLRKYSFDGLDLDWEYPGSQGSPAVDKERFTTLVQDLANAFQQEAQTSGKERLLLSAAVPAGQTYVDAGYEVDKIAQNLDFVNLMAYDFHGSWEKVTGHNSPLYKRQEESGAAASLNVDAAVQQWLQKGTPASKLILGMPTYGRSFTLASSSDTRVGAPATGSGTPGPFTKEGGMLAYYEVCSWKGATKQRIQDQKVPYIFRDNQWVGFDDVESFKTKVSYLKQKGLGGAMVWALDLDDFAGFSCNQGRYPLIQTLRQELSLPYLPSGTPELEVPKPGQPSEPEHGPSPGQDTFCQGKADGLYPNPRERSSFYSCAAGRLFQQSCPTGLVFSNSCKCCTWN

As for `Nc1nnc(N2CCC(N3CCS(=O)(=O)C[C@@H]3Cc3ccc(Cl)cc3)CC2)[nH]1`, the values for the IC50 (in data set [1]; on Chitotriosidase-1 [2]) were 3 µM and 1.7 µM, respectively.
With `Nc1nnc(N2CCC(N3Cc4ccccc4OC[C@@H]3Cc3ccc(Cl)cc3)CC2)[nH]1`, the IC50 (commonly the point on the concentration scale where inhibition reaches its midpoint) came out at 0.059 µM in data set [1], 22 µM in data set [3] and 0.137 µM on Chitotriosidase-1 [2].
On to `CC(C)(O)[C@H]1CN(C2CCN(c3nc(N)n[nH]3)CC2)[C@@H](Cc2ccc(Cl)cc2)CO1`, for which the 50% inhibitory concentration (IC50) in data set [1] is 0.0055 µM; in data set [3] (hek293), “Not Active”; against Chitotriosidase-1 [2], 0.029 µM.
As to `C[C@@H]1CN(C2CCN(c3nnc(N)[nH]3)CC2)[C@@H](Cc2ccc(Cl)cc2)CO1`, the values for the concentration for half-maximal inhibition (IC50) (in data set [1]; at Chitotriosidase-1 [2]) were 1 µM and 7.2 µM, respectively.
As to `CC(C)C[C@H]1CN(C2CCN(c3nnc(N)[nH]3)CC2)[C@@H](Cc2ccc(Cl)cc2)CO1`, the half-inhibitory concentration (IC50) in data set [1] was found to be 0.001 µM; in data set [3], 8.5 µM; on Chitotriosidase-1 [2] it was 0.015 µM.
On the same counts, the results for `COC[C@H]1CN(C2CCN(c3nc(N)n[nH]3)CC2)[C@@H](Cc2ccc(Cl)cc2)CO1` are 0.0077 µM, 100 µM and 0.03 µM.
On the same counts, the results for `Nc1nnc(N2CCC(N3C[C@H](CO)OC[C@@H]3Cc3ccc(Cl)cc3)CC2)[nH]1` are 0.0067 µM, 72 µM and 0.025 µM.
With `CC[C@H]1CN(C2CCN(c3nc(N)n[nH]3)CC2)[C@@H](Cc2ccc(Cl)cc2)CO1`, the IC50 in data set [1] turned out to be 0.0013 µM; in data set [3], 33 µM.
In the case of `Nc1n[nH]c(N2CCC(N3CC(=O)NC[C@@H]3Cc3ccc(Cl)cc3)CC2)n1`, the values for the half-inhibitory concentration (IC50) (in data set [1]; in data set [3]; at Chitotriosidase-1 [2]) were 0.66 µM, 80 µM and 5.3 µM, respectively.
As to `CNC(=O)[C@H]1CN(C2CCN(c3nc(N)n[nH]3)CC2)[C@@H](Cc2ccc(Cl)cc2)CO1`, the results for the 50% inhibitory concentration (IC50) (in data set [1]; in data set [3] (hek293); against Chitotriosidase-1 [2]) were 0.0078 µM, “Not Active” and 0.049 µM, respectively.
As to `CC(C)[C@H]1CN(C2CCN(c3nc(N)n[nH]3)CC2)[C@@H](Cc2ccc(Cl)cc2)CO1`, the IC50 in data set [1] stood at 0.0021 µM; in data set [3], 34 µM; on Chitotriosidase-1 [2], 0.019 µM.
Regarding `CN1CCN(C2CCN(c3nnc(N)[nH]3)CC2)[C@@H](Cc2ccc(Cl)cc2)C1`, in data set [3] (hek293), the IC50 result is listed as “Not Active”.
`Nc1n[nH]c(N2CCC(N3CCNC(=O)[C@@H]3Cc3ccc(Cl)cc3)CC2)n1`: the IC50 result against Chitotriosidase-1 [4] was “Not Active”; in data set [1] it was 22 µM; at Chitotriosidase-1 [2], 27 µM.
In the case of `CC(C)CN1C[C@H](Cc2ccc(Cl)cc2)N(C2CCN(c3n[nH]c(N)n3)CC2)C[C@@H]1C`, the IC50 in data set [5] stood at 0.084 µM; in data set [3], 2.4 µM.
